Drawing on publication PMC7111787 (Virology, 2006), this text covers EC50 for one compound.

For the experiment, the target named is T1, MHV E protein (Murine hepatitis virus strain A59, UniProt P0C2R0).
T1 sequence (P0C2R0 1-83): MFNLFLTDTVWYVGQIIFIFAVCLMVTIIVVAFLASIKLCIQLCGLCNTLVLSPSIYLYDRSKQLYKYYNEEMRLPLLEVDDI
The experiment can be described thus: planar lipid bilayer current recording, dose titration. The class given is biochemical.

As for `N=C(N)NC(=O)c1nc(Cl)c(N2CCCCCC2)nc1N` [HMA, Hexamethylene amiloride], the midpoint of the response, the EC50, lay at 10.2 µM. This counts as double-digit micromolar.
